Experiments:
[1] = system: synthesis of prostaglandins (PGE2); assay: PGE2 synthesis induced by PMA in cultured keratinocytes (approach 2), ELISA, evaluating inhibition of cyclooxygenase; assay type: cell-based, human; conditions: indomethacin 1 μM
Source text: (§1) In the initial steps of the induction of inflammation, the arachidonic acid stored in the cell membranes is liberated. Once the arachidonic acid has been liberated, it can follow different metabolic pathways. The pathways include: the cyclooxygenase enzyme pathway which leads to the prostaglandins, and the lipoxygenase enzyme pathway which leads to the leukotrienes. The anti-inflammatory activity of purslane extract was, therefore, tested in vitro by evaluating the inhibition of cyclooxygenase. The ELISA-based test employed made it possible to monitor the synthesis of prostaglandins (PGE2) in cultures of human keratinocytes. The cells were used at subconfluence with a cellular multiplication and an active metabolic activity. Two approaches were employed: approach 1: synthesis of the PGE2 intrinsic to the cultured cells; and approach 2: synthesis of the PGE2 induced chemically by PMA (phorbol myristate acetate), an inflammatory agent. Normal human keratinocytes were cultured at 37° C. for 48 hours in a defined medium in the presence of the following products: approach 1: -purslane extract (0.1%, 0.5%, 1% and 3% vol/vol) - aspirin 100 μM (anti-inflammatory, reference compound) approach 2: - purslane extract (0.1%, 0.5%, 1% and 3% vol/vol) - indomethacin 1 μM (anti-inflammatory, reference compound) - stimulation with PMA 1 μg/ml (after 24 hours of incubation). At the end of 48 hours, the different media were collected for quantitative determination of the PGE2. The protective capacity against the liberation of prostaglandins induced by the pro-inflammatory agent PMA was studied using approach 2.

[2] = system: synthesis of prostaglandins (PGE2); assay: PGE2 synthesis intrinsic to cultured keratinocytes (approach 1), ELISA, evaluating inhibition of cyclooxygenase; assay type: cell-based, human; conditions: aspirin 100 μM
Source text: as §1, with “PGE2.” for “PGE2. The protective capacity against the liberation of prostaglandins induced by the pro-inflammatory agent PMA was studied using approach 2.”

SMILES	inhibition at 1 µM ([1]; Homo sapiens, Keratinocyte, PMA-induced PGE2, read-out: % inhibition of the liberation of PGE2)	% control ([1]; PGE2 relative to control, PMA-induced)	Pg PGE2/mg prot ([1]; PMA 1 μg/ml stimulation after 24 h, 48 h)	% inhibition of the liberation of PGE2 ([1]; PMA-induced PGE2)	inhibition at 100 µM ([2]; Homo sapiens, Keratinocyte, intrinsic PGE2, 48 h, read-out: % inhibition of the liberation of PGE2)	% control ([2]; PGE2 relative to control, intrinsic PGE2, 48 h)	Pg PGE2/mg prot ([2]; normal human keratinocytes, 48 h, intrinsic PGE2)
COc1ccc2c(c1)c(CC(=O)O)c(C)n2C(=O)c1ccc(Cl)cc1 [Indomethacin, indomethacin]	80%	21.0%	1683.9 Pg PGE2/mg prot	79.0%			
CC(=O)Oc1ccccc1C(=O)O [Aspirin, aspirin]					60.3%	39.7%	1968.2 Pg PGE2/mg prot
